Values after ≈ are worked out from the molar mass of the structure shown. Like-named read-outs stand apart in the source and are kept apart here.
Legend:
[1] = tested on: clinical MDR Staphylococcus epidermidis isolates; assay: MIC, broth microdilution, 81 clinical MDR strains; format: cell-based; conditions: Staphylococcus epidermidis
In short: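 MICs were determined by twofold broth microdilution in cation-adjusted Mueller-Hinton II broth per EUCAST, over 50–0.1 µg/mL, in duplicate. Compounds were tested as free bases dissolved in DMSO; MIC50 and MIC90 were derived across the 81 clinical MDR S. epidermidis strains.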

[2] = tested on: Staphylococcus aureus ATCC BAA-976; assay: MIC, broth microdilution, MDR/BPSA reference strain; format: cell-based; conditions: ATCCBAA976; Staphylococcus aureus ATCC BAA-976; read-out: MIC MDR/BPSA
In short: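 Compounds tested as free bases dissolved in DMSO (1 mg/mL stock); determinations done twice; linezolid as positive control.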

Compound: O=S(=O)(NC1CCN(CCC(Oc2ccc(C(F)(F)F)cc2)c2ccccc2)CC1)c1cccc(Cl)c1 (stereo not shown) [Compound 12]
- MIC ([1]; clinical strain 1 (Table S2), read-out: MIC): 0.2 µg/mL (≈ 0.362 µM)
- MIC ([1]; clinical strain 2 (Table S2), read-out: MIC): 1.6 µg/mL (≈ 2.89 µM)
- MIC ([1]; clinical strain 3 (Table S2), read-out: MIC): 0.8 µg/mL (≈ 1.45 µM)
- MIC ([1]; clinical strain 4 (Table S2), read-out: MIC): 0.8 µg/mL (≈ 1.45 µM)
- MIC ([1]; clinical strain 5 (Table S2), read-out: MIC): 1.6 µg/mL (≈ 2.89 µM)
- MIC ([1]; clinical strain 6 (Table S2), read-out: MIC): 3.12 µg/mL (≈ 5.65 µM)
- MIC ([1]; clinical strain 7 (Table S2), read-out: MIC): 6.25 µg/mL (≈ 11.3 µM)
- MIC ([1]; clinical strain 8 (Table S2), read-out: MIC): 1.6 µg/mL (≈ 2.89 µM)
- MIC ([1]; clinical strain 9 (Table S2), read-out: MIC): 3.12 µg/mL (≈ 5.65 µM)
- MIC ([1]; clinical strain 10 (Table S2), read-out: MIC): 6.25 µg/mL (≈ 11.3 µM)
- MIC ([1]; clinical strain 11 (Table S2), read-out: MIC): 6.25 µg/mL (≈ 11.3 µM)
- MIC ([1]; clinical strain 12 (Table S2), read-out: MIC): 6.25 µg/mL (≈ 11.3 µM)
- MIC ([1]; clinical strain 13 (Table S2), read-out: MIC): 6.25 µg/mL (≈ 11.3 µM)
- MIC ([1]; clinical strain 14 (Table S2), read-out: MIC): 50 µg/mL (≈ 90.4 µM)
- MIC ([1]; clinical strain 15 (Table S2), read-out: MIC): 3.12 µg/mL (≈ 5.65 µM)
- MIC ([1]; clinical strain 16 (Table S2), read-out: MIC): 3.12 µg/mL (≈ 5.65 µM)
- MIC ([1]; clinical strain 17 (Table S2), read-out: MIC): 3.12 µg/mL (≈ 5.65 µM)
- MIC ([1]; clinical strain 18 (Table S2), read-out: MIC): 3.12 µg/mL (≈ 5.65 µM)
- MIC ([1]; clinical strain 19 (Table S2), read-out: MIC): 3.12 µg/mL (≈ 5.65 µM)
- MIC ([1]; clinical strain 20 (Table S2), read-out: MIC): 6.25 µg/mL (≈ 11.3 µM)
- MIC ([1]; clinical strain 21 (Table S2), read-out: MIC): 6.25 µg/mL (≈ 11.3 µM)
- MIC ([1]; clinical strain 22 (Table S2), read-out: MIC): 12.5 µg/mL (≈ 22.6 µM)
- MIC ([1]; clinical strain 23 (Table S2), read-out: MIC): 12.5 µg/mL (≈ 22.6 µM)
- MIC ([1]; clinical strain 24 (Table S2), read-out: MIC): 12.5 µg/mL (≈ 22.6 µM)
- MIC ([1]; clinical strain 25 (Table S2), read-out: MIC): 12.5 µg/mL (≈ 22.6 µM)
- MIC ([1]; clinical strain 26 (Table S2), read-out: MIC): 12.5 µg/mL (≈ 22.6 µM)
- MIC ([1]; clinical strain 27 (Table S2), read-out: MIC): 25 µg/mL (≈ 45.2 µM)
- MIC ([1]; clinical strain 28 (Table S2), read-out: MIC): 12.5 µg/mL (≈ 22.6 µM)
- MIC ([1]; clinical strain 29 (Table S2), read-out: MIC): 12.5 µg/mL (≈ 22.6 µM)
- MIC ([1]; clinical strain 30 (Table S2), read-out: MIC): 25 µg/mL (≈ 45.2 µM)
- MIC ([1]; clinical strain 31 (Table S2), read-out: MIC): 50 µg/mL (≈ 90.4 µM)
- MIC ([1]; clinical strain 32 (Table S2), read-out: MIC): 50 µg/mL (≈ 90.4 µM)
- MIC ([1]; clinical strain 33 (Table S2), read-out: MIC): 25 µg/mL (≈ 45.2 µM)
- MIC ([1]; clinical strain 34 (Table S2), read-out: MIC): 50 µg/mL (≈ 90.4 µM)
- MIC ([1]; clinical strain 35 (Table S2), read-out: MIC): 50 µg/mL (≈ 90.4 µM)
- MIC ([1]; clinical strain 36 (Table S2), read-out: MIC): 50 µg/mL (≈ 90.4 µM)
- MIC ([1]; clinical strain 37 (Table S2), read-out: MIC): 50 µg/mL (≈ 90.4 µM)
- MIC ([1]; clinical strain 38 (Table S2), read-out: MIC): 50 µg/mL (≈ 90.4 µM)
- MIC ([1]; clinical strain 39 (Table S2), read-out: MIC): 50 µg/mL (≈ 90.4 µM)
- MIC ([1]; clinical strain 40 (Table S2), read-out: MIC): 50 µg/mL (≈ 90.4 µM)
- MIC ([1]; clinical strain 41 (Table S2), read-out: MIC): 12.5 µg/mL (≈ 22.6 µM)
- MIC ([1]; clinical strain 42 (Table S2), read-out: MIC): 50 µg/mL (≈ 90.4 µM)
- MIC ([1]; clinical strain 43 (Table S2), read-out: MIC): 25 µg/mL (≈ 45.2 µM)
- MIC ([1]; clinical strain 44 (Table S2), read-out: MIC): 50 µg/mL (≈ 90.4 µM)
- MIC ([1]; clinical strain 45 (Table S2), read-out: MIC): 50 µg/mL (≈ 90.4 µM)
- MIC ([1]; clinical strain 46 (Table S2), read-out: MIC): 50 µg/mL (≈ 90.4 µM)
- MIC ([1]; clinical strain 47 (Table S2), read-out: MIC): 50 µg/mL (≈ 90.4 µM)
- MIC ([1]; clinical strain 48 (Table S2), read-out: MIC): 3.12 µg/mL (≈ 5.65 µM)
- MIC ([1]; clinical strain 49 (Table S2), read-out: MIC): 0.1 µg/mL (≈ 0.181 µM)
- MIC ([1]; clinical strain 50 (Table S2), read-out: MIC): 50 µg/mL (≈ 90.4 µM)
- MIC ([1]; clinical strain 51 (Table S2), read-out: MIC): 50 µg/mL (≈ 90.4 µM)
- MIC ([1]; clinical strain 52 (Table S2), read-out: MIC): 3.12 µg/mL (≈ 5.65 µM)
- MIC ([1]; clinical strain 53 (Table S2), read-out: MIC): 6.25 µg/mL (≈ 11.3 µM)
- MIC ([1]; clinical strain 54 (Table S2), read-out: MIC): 50 µg/mL (≈ 90.4 µM)
- MIC ([1]; clinical strain 55 (Table S2), read-out: MIC): 6.25 µg/mL (≈ 11.3 µM)
- MIC ([1]; clinical strain 56 (Table S2), read-out: MIC): 3.12 µg/mL (≈ 5.65 µM)
- MIC ([1]; clinical strain 57 (Table S2), read-out: MIC): 50 µg/mL (≈ 90.4 µM)
- MIC ([1]; clinical strain 58 (Table S2), read-out: MIC): 3.12 µg/mL (≈ 5.65 µM)
- MIC ([1]; clinical strain 59 (Table S2), read-out: MIC): 50 µg/mL (≈ 90.4 µM)
- MIC ([1]; clinical strain 60 (Table S2), read-out: MIC): 3.12 µg/mL (≈ 5.65 µM)
- MIC ([1]; clinical strain 61 (Table S2), read-out: MIC): 50 µg/mL (≈ 90.4 µM)
- MIC ([1]; clinical strain 62 (Table S2), read-out: MIC): 6.25 µg/mL (≈ 11.3 µM)
- MIC ([1]; clinical strain 63 (Table S2), read-out: MIC): 1.6 µg/mL (≈ 2.89 µM)
- MIC ([1]; clinical strain 64 (Table S2), read-out: MIC): 3.12 µg/mL (≈ 5.65 µM)
- MIC ([1]; clinical strain 65 (Table S2), read-out: MIC): 3.12 µg/mL (≈ 5.65 µM)
- MIC ([1]; clinical strain 66 (Table S2), read-out: MIC): 50 µg/mL (≈ 90.4 µM)
- MIC ([1]; clinical strain 67 (Table S2), read-out: MIC): 50 µg/mL (≈ 90.4 µM)
- MIC ([1]; clinical strain 68 (Table S2), read-out: MIC): 50 µg/mL (≈ 90.4 µM)
- MIC ([1]; clinical strain 69 (Table S2), read-out: MIC): 1.6 µg/mL (≈ 2.89 µM)
- MIC ([1]; clinical strain 70 (Table S2), read-out: MIC): 50 µg/mL (≈ 90.4 µM)
- MIC ([1]; clinical strain 71 (Table S2), read-out: MIC): 50 µg/mL (≈ 90.4 µM)
- MIC ([1]; clinical strain 72 (Table S2), read-out: MIC): 3.12 µg/mL (≈ 5.65 µM)
- MIC ([1]; clinical strain 73 (Table S2), read-out: MIC): 0.8 µg/mL (≈ 1.45 µM)
- MIC ([1]; clinical strain 74 (Table S2), read-out: MIC): 50 µg/mL (≈ 90.4 µM)
- MIC ([1]; clinical strain 75 (Table S2), read-out: MIC): 6.25 µg/mL (≈ 11.3 µM)
- MIC ([1]; clinical strain 76 (Table S2), read-out: MIC): 0.8 µg/mL (≈ 1.45 µM)
- MIC ([1]; clinical strain 77 (Table S2), read-out: MIC): 3.12 µg/mL (≈ 5.65 µM)
- MIC ([1]; clinical strain 78 (Table S2), read-out: MIC): 6.25 µg/mL (≈ 11.3 µM)
- MIC ([1]; clinical strain 79 (Table S2), read-out: MIC): 3.12 µg/mL (≈ 5.65 µM)
- MIC ([1]; clinical strain 80 (Table S2), read-out: MIC): 12.5 µg/mL (≈ 22.6 µM)
- MIC ([1]; clinical strain 81 (Table S2), read-out: MIC): 6.25 µg/mL (≈ 11.3 µM)
- MIC ([1]; mean of MIC values against clinical MDR-SE isolates, read-out: mean MIC): 20.4 µg/mL (≈ 36.9 µM)
- MIC50 ([1]; 81 clinical strains, concentration inhibiting growth of 50% clinical isolates): 6.25 µg/mL (≈ 11.3 µM)
- MIC90 ([1]; 81 clinical strains, concentration inhibiting growth of 90% of clinical isolates): 50 µg/mL (≈ 90.4 µM)
- MIC [2]: 50 µg/mL (≈ 90.4 µM)
